The source of these data is patent US20230391779A1, “BICYCLIC COMPOUNDS, COMPOSITIONS AND USE THEREOF” (Betta Pharmaceuticals Co., Ltd., priority 2020, published 2023).

Each structure is given as a SMILES string.

The test system of one data set is TEAD-YAP/TAZ interaction. Nature of the data set: CTGF ELISA assay. The format is cell-based, human. Particulars: CTGF in culture supernatant of NCI-H2052 cells, 24 hours with compound. A digest of the protocol: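 NCI-H2052 cells treated 24 h at 37 °C with compound (10000–0.61 nM, 0.5% DMSO); secreted CTGF in supernatant measured by sandwich ELISA (OD 450 nm) against a standard curve. EC50 fitted from CTGF concentration-response curves.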
In general terms: In an ELISA, binding on a coated surface is turned into a signal by an enzyme label.

Data set [1] can be described thus: Pharmacokinetics in plasma following PO cassette dosing in mice. Particulars: mouse, Balb/C female mice, 5 mg/kg; for AUC: blood collection 30 min, 2 h, 4 h. Type of data set: in vivo. Here is the method: Adult Balb/C female mice (6-7 weeks, Vitalriver) were received to cassette dosing of the test compounds with 10-20% DMSO, 10% Solutol (Kolliphor HS 15, Beijing Fengli Jingqiu Pharmaceutical Co., Ltd.) and 80-70% H2O as excipients. The mice (n=3) were giving oral administration (intragastric administration) at a dose of 5 mg/kg. Time of blood collection: 30 min, 2 h, 4 h. About 0.1 mL of whole blood was collected from retro-orbital venous plexus, and placed into tubes that contained EDTA as an anticoagulant. The samples were centrifuged at 4° C. and 4000 rpm for 10 min. The plasma was transferred into centrifuge tubes, and stored at −20° C. before being analyzed. Concentrations of test compounds in the plasma samples were analyzed with liquid chromatography-tandem mass spectrometry (LC-MS/MS). Plasma concentration-time data of individual animals was analyzed using Microsoft Excel 2010. Non-compartmental model was introduced in concentration analysis. The pharmacokinetic parameters of the test compounds were calculated using WinNonlin (version 4.1; Pharsight) software.

As to `C=CC(=O)N1CCC(n2nc(-c3ccc(C(F)(F)F)cc3)c3cccnc32)C1` (stereo not shown) [Compound 21, 1-(3-(3-(4-(trifluoromethyl)phen-yl)-1H-pyrazolo[3,4-b]pyridin-1-yl)pyrrolidin-1-yl)prop-2-en-1-one], the EC50 in the data set on TEAD-YAP/TAZ interaction is 11 nM. Also, in data set [1], the Cmax worked out at 1060 ng/mL and the AUC worked out at 3150 ng·h/mL.

With `C=CC(=O)N1CCC(n2nc(-c3ccc(C(F)(F)F)cc3)c3ncccc32)C1` (stereo not shown) [Compound 26, 1-(3-(3-(4-(trifluoromethyl)phen-yl)-1H-pyrazolo[4,3-b]pyridin-1-yl)pyrrolidin-1-yl)prop-2-en-1-one], in the data set on TEAD-YAP/TAZ interaction, the EC50 turned out to be 3.6 nM. Moreover, in data set [1], the Cmax was determined as 1420 ng/mL and the AUC was found to be 4640 ng·h/mL.

For the compound `C=CC(=O)N1CCC(n2nc(-c3ccc(C(F)(F)F)cc3)c3ccc(C)cc32)C1` (stereo not shown) [Compound 47, 1-(3-(6-methyl-3-(4-(trifluoro-methyl)phenyl)-1H-indazol-1-yl)-pyrrolidin-1-yl)prop-2-en-1-one], in the data set with TEAD-YAP/TAZ interaction, the EC50 was determined as 15 nM. Also, in data set [1], the Cmax came to 721 ng/mL and the AUC is 2510 ng·h/mL.

Turning to `C=CC(=O)N1CCC(n2nc(-c3ccc(C(F)(F)F)cn3)c3ccccc32)C1` (stereo not shown) [Compound 58, 1-(3-(3-(5-(trifluoromethyl)pyr-idin-2-yl)-1H-indazol-1-yl)pyrrol-idin-1-yl)prop-2-en-1-one], in the data set on TEAD-YAP/TAZ interaction, the EC50 was 17 nM. In data set [1], this compound gave a Cmax of 1580 ng/mL and an AUC of 4470 ng·h/mL.

Take `C=CC(=O)N1CCC(n2nc(-c3ccc(C(F)(F)F)cc3)c3nc(OC)ccc32)C1` (stereo not shown) [Compound 89, 1-(3-(5-methoxy-3-(4-(trifluoro-methyl)phenyl)-1H-pyrazolo[4,3-b]pyridin-1-yl)pyrrolidin-1-yl)-prop-2-en-1-one]: the EC50 with TEAD-YAP/TAZ interaction came out at 12 nM. Moreover, in data set [1], the Cmax turned out to be 1970 ng/mL and the AUC was 6480 ng·h/mL.

Turning to `C=CC(=O)N1CCC(n2nc(-c3ccc(C(F)(F)F)nc3)c3cccc(C(=O)NC4CC(F)(F)C4)c32)C1` (stereo not shown) [Compound 104, 1-(1-acryloylpyrrolidin-3-yl)-N-(3,3-difluorocyclobutyl)-3-(6-(trifluoromethyl)pyridin-3-yl)-1H-indazole-7-carboxamide], the EC50 in the data set with TEAD-YAP/TAZ interaction worked out at 14 nM. Besides, in data set [1], the highest level (Cmax) was 1520 ng/mL and the AUC came to 5060 ng·h/mL.

`C=CC(=O)N1CCC(n2nc(-c3ccc(C(F)(F)F)cc3)c3cc(Cl)cnc32)C1` (stereo not shown) [Compound 108, 1-(3-(5-chloro-3-(4-(trifluoro-methyl)phenyl)-1H-pyrazolo[3,4-b]pyridin-1-yl)pyrrolidin-1-yl)-prop-2-en-1-one]: in the data set on TEAD-YAP/TAZ interaction, the EC50 was determined as 12 nM. In data set [1], this compound registered a Cmax of 1200 ng/mL and an AUC of 3500 ng·h/mL.

Regarding `C=C(F)C(=O)N1CC(n2nc(-c3ccc(C(F)(F)F)cc3F)c3cccnc32)C1` [Compound 128, 2-fluoro-1-(3-(3-(2-fluoro-4-(trifluoromethyl)phenyl)-1H-pyrazolo[3,4-b]pyridin-1-yl)-azetidin-1-yl)prop-2-en-1-one], the EC50 in the data set with TEAD-YAP/TAZ interaction worked out at 9 nM. Moreover, in data set [1], the peak level (Cmax) was 5270 ng/mL and the AUC stood at 19300 ng·h/mL.

For the compound `C=C(F)C(=O)N1CC(n2nc(-c3ccc(C(F)(F)F)cc3F)c3ncccc32)C1` [Compound 130, 2-fluoro-1-(3-(3-(2-fluoro-4-(trifluoromethyl)phenyl)-1H-pyrazolo[4,3-b]pyridin-1-yl)-azetidin-1-yl)prop-2-en-1-one], the EC50 with TEAD-YAP/TAZ interaction was determined as 4 nM. Moreover, in data set [1], the Cmax was 1960 ng/mL and the AUC was 7110 ng·h/mL.

On to `C=C(F)C(=O)N1CC(n2nc(-c3ccc(OC(F)(F)F)cc3)c3cccnc32)C1` [Compound 172, 2-fluoro-1-(3-(3-(4-(trifluoro-methoxy)phenyl)-1H-pyrazolo-[3,4-b]pyridin-1-yl)azetidin-1-yl)prop-2-en-1-one], for which, in the data set on TEAD-YAP/TAZ interaction, the EC50 was 0.4 nM. Besides, in data set [1], the concentration peaked (Cmax) at 1650 ng/mL and the AUC amounted to 1650 ng·h/mL.

Regarding `C=C(F)C(=O)N1CC(n2nc(-c3ccc(S(F)(F)(F)(F)F)cc3)c3cccnc32)C1` [Compound 173, 2-fluoro-1-(3-(3-(4-(pentafluoro-16-sulfanyl)phenyl)-1H-pyrazolo-[3,4-b]pyridin-1-yl)azetidin-1-yl)prop-2-en-1-one], the EC50 in the data set with TEAD-YAP/TAZ interaction stood at 48 nM. In data set [1], the Cmax was 1670 ng/mL and the AUC was found to be 5960 ng·h/mL.

Consider `C=C(F)C(=O)N1CC(n2nc(-c3cnc(C(F)(F)F)nc3)c3cccnc32)C1` [Compound 183, 2-fluoro-1-(3-(3-(2-(trifluorometh-yl)pyrimidin-5-yl)-1H-pyrazolo-[3,4-b]pyridin-1-yl)azetidin-1-yl)-prop-2-en-1-one], for which, in data set [1], the peak level (Cmax) was 3680 ng/mL and the AUC came out at 12800 ng·h/mL.

`C=CC(=O)N1CC(n2c(=O)n(-c3ccc(C(F)(F)F)cc3)c3ccccc32)C1` [Compound 236, 1-(1-acryloylazetidin-3-yl)-3-(4-(trifluoromethyl)phenyl)-1,3-dihydro-2H-benzo[d]imidazol-2-one]: the EC50 in the data set on TEAD-YAP/TAZ interaction was 3 nM.

Turning to `C=C(F)C(=O)N1CC(n2c(=O)n(-c3ccc(C(F)(F)F)cc3)c3ncccc32)C1` [Compound 239, 1-(1-(2-fluoroacryloyl)azetidin-3-yl)-3-(4-(trifluoromethyl)phenyl)-1,3-dihydro-2H-imidazo[4,5-b]pyridin-2-one], the EC50 in the data set on TEAD-YAP/TAZ interaction came to 15 nM.

For the compound `C=C(F)C(=O)N1CC(n2c(=O)n(-c3ccc(C(F)(F)F)nc3)c3nccnc32)C1` [Compound 241, 1-(1-(2-fluoroacryloyl)azetidin-3-yl)-3-(6-(trifluoromethyl)pyridin-3-yl)-1,3-dihydro-2H-imidazo[4,5-b]pyrazin-2-one], in data set [1], the peak level (Cmax) was 2530 ng/mL and the AUC is 8260 ng·h/mL.

In the case of `C=C(F)C(=O)N1CC(n2c(=O)n(-c3ccc(C(F)(F)F)cc3)c3cc(C)cnc32)C1` [Compound 244, 3-(1-(2-fluoroacryloyl)azetidin-3-yl)-6-methyl-1-(4-(trifluoromethyl)phenyl)-1,3-dihydro-2H-imidazo[4,5-b]pyridin-2-one], in the data set on TEAD-YAP/TAZ interaction, the EC50 worked out at 11 nM.

`C=C(F)C(=O)N1CC(n2c(=O)n(-c3ccc(C(F)(F)F)cc3)c3cc(C(F)(F)F)cnc32)C1` [Compound 245, 3-(1-(2-fluoroacryloyl)azetidin-3-yl)-6-(trifluoromethyl)-1-(4-(trifluoromethyl)phenyl)-1,3-dihydro-2H-imidazo[4,5-b]pyridin-2-one]: the EC50 with TEAD-YAP/TAZ interaction was determined as 32 nM.

For the compound `C=C(F)C(=O)N1CC(n2c(=O)n(-c3ccc(C(F)(F)F)cc3)c3ccc(Cl)nc32)C1` [Compound 252, 5-chloro-3-(1-(2-fluoroacryloyl)azetidin-3-yl)-1-(4-(trifluoromethyl)phenyl)-1,3-dihydro-2H-imidazo[4,5-b]pyridin-2-one], the EC50 in the data set on TEAD-YAP/TAZ interaction amounted to 9.8 nM.

For the compound `C=C(F)C(=O)N1CC(Nc2nc(-c3ccc(C(F)(F)F)cc3)nc3ccccc23)C1` [Compound 255, 2 fluoro-1-(3-((2-(4-(trifluoromethyl)phenyl)quinazolin-4 yl)amino)azetidin-1 yl)prop-2-en-1-one], the EC50 with TEAD-YAP/TAZ interaction is 44 nM.

With `C=C(F)C(=O)N1CC(c2nc(-c3ccc(C(F)(F)F)cc3)nc3ccccc23)C1` [Compound 256, 2 fluoro-1-(3-(2-(4-(trifluoromethyl)phenyl)quinazolin-4 yl)azetidin-1 yl)prop-2-en-1-one], the EC50 with TEAD-YAP/TAZ interaction amounted to 0.7 nM.

As for `C=CC(=O)NC1CN(c2nc(-c3ccc(C(F)(F)F)cc3)nc3ccccc23)C1` [compound 268, N-(1-(2-(4-(trifluoromethyl)phenyl)quinazolin-4-yl)azetidin-3-yl)acrylamide], in data set [1], the Cmax is 1690 ng/mL and the AUC worked out at 6100 ng·h/mL.

In data set [1], `C=C(F)C(=O)NC1CN(c2nc(-c3ccc(C(F)(F)F)cc3)nc3ccccc23)C1` [compound 269, 2-fluoro-N-(1-(2-(4-(trifluoromethyl)phenyl)quinazolin-4-yl)azetidin-3-yl)acrylamide] registered a Cmax of 1250 ng/mL and an AUC of 4370 ng·h/mL.

Consider `C=CC(=O)NC1CN(c2nc(-c3ccc(C(F)(F)F)cc3)nc3cccnc23)C1` [compound 281, N-(1-(2-(4-(trifluoromethyl)phenyl)pyrido[3,2-d]pyrimidin-4-yl)azetidin-3-yl)acrylamide], for which, in data set [1], the Cmax stood at 1190 ng/mL and the AUC was 4200 ng·h/mL.

Regarding `C=C(F)C(=O)N1CC(n2nc(C#Cc3ccccc3)c3cccnc32)C1` [compound 307], in data set [1], the Cmax is 2710 ng/mL and the AUC is 8480 ng·h/mL.

Take `C=C(F)C(=O)N1CC(n2nc(/C=C/c3ccccc3)c3cccnc32)C1` [compound 308]: in data set [1], the highest level (Cmax) was 2610 ng/mL and the AUC worked out at 9110 ng·h/mL.

For the compound `C=C(F)C(=O)N1CC(n2nc(C#CC3CCCC3)c3cccnc32)C1` [compound 312, 1-(3-(3-(cyclopentylethynyl)-1H-pyrazolo[3,4-b]pyridin-1-yl)azetidin-1-yl)-2-fluoroprop-2-en-1-one], in data set [1], the peak level (Cmax) was 2080 ng/mL and the AUC was 5790 ng·h/mL.

With `C=C(F)C(=O)N1CC(n2nc(/C=C/C3CCCCC3)c3cccnc32)C1` [compound 331, (E)-1-(3-(3-(2-cyclohexylvinyl)-1H-pyrazolo[3,4-b]pyridin-1-yl)azetidin-1-yl)-2-fluoroprop-2-en-1-one], in data set [1], the Cmax amounted to 1760 ng/mL and the AUC was determined as 5730 ng·h/mL.

By EC50 is commonly meant the concentration at which the effect is half-maximal. In general, Cmax refers to the maximum level reached in the sampled fluid or tissue. A word on the AUC: it is the area under the concentration-time curve, a measure of exposure. Low readings indicate low exposure, high ones high exposure.
